Target: MAPK14 (human) (UniProt Q16539)
Assay: Inhibition of LPS Stimulated TNF Production by U937 Cells
Conditions: not given

Sequence of MAPK14 (human) (Q16539 whole entry, looked up): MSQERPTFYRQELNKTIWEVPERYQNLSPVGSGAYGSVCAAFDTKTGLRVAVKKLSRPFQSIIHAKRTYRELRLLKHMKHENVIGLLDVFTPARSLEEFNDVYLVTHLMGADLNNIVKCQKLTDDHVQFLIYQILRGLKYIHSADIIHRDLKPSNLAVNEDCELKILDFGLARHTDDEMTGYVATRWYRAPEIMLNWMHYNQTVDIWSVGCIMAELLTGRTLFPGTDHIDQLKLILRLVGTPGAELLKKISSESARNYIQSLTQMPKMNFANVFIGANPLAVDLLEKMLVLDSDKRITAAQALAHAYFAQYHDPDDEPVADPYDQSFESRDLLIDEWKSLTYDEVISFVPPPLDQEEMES

Compound	IC50
Cc1n[nH]c(-c2ccc(F)c(F)c2)c1-c1ccncc1	0.329 µM
O=C(NCc1[nH]nc(-c2ccc(F)cc2)c1-c1ccncc1)[C@H]1CCCN1	> 1 µM
CCN(CC)CCn1cc(-c2ccnc(NCc3ccc(F)cc3)c2)c(-c2ccc(F)cc2)n1	0.7 µM
CNC(=O)CC[C@H](NC(=O)c1ccno1)c1[nH]nc(-c2ccc(F)cc2)c1-c1ccncc1	> 1 µM
CC(=O)OC(C)(C)C(=O)N[C@H](Cc1ccccc1)c1[nH]nc(-c2ccc(F)cc2)c1-c1ccncc1	> 1 µM
CC(Oc1ccccc1)C(=O)NCc1[nH]nc(-c2ccc(F)cc2)c1-c1ccncc1 (configuration not stated)	2.26 µM
COc1ccccc1C(=O)NCc1[nH]nc(-c2ccc(F)cc2)c1-c1ccncc1	4.47 µM

Same assay, conditions: concentration not given here

Compound	inhibition
COc1ccc(OC)c(S(=O)(=O)N[C@H](C)c2[nH]nc(-c3ccc(F)cc3)c2-c2ccncc2)c1	81%
C=CCNC(=O)N[C@H](C)c1[nH]nc(-c2ccc(F)cc2)c1-c1ccncc1	48%
Cc1noc(C)c1C(=O)N[C@H](C)c1[nH]nc(-c2ccc(F)cc2)c1-c1ccncc1	73%
O=C(NCc1[nH]nc(-c2ccc(F)cc2)c1-c1ccncc1)c1cc(F)cc(F)c1	34%
O=C(NCc1[nH]nc(-c2ccc(F)cc2)c1-c1ccncc1)[C@@H]1CCCN1C(=O)OCC1c2ccccc2-c2ccccc21	55%
C[C@H](NS(=O)(=O)c1ccc(CNC(=O)c2ccccc2)s1)c1[nH]nc(-c2ccc(F)cc2)c1-c1ccncc1	83%
Cc1onc(-c2ccccc2Cl)c1C(=O)NCc1[nH]nc(-c2ccc(F)cc2)c1-c1ccncc1	21%
C[C@@H](NS(=O)(=O)c1cccc2ccccc12)c1[nH]nc(-c2ccc(F)cc2)c1-c1ccncc1	58%
O=S(=O)(NCc1[nH]nc(-c2ccc(F)cc2)c1-c1ccncc1)c1ccc(F)cc1Cl	40%
CCCNC(=O)N[C@H](C)c1[nH]nc(-c2ccc(F)cc2)c1-c1ccncc1	55%
COc1cc(C(=O)NCc2[nH]nc(-c3ccc(F)cc3)c2-c2ccncc2)cc(OC)c1OC	21%
C[C@@H](NS(=O)(=O)c1ccccc1S(C)(=O)=O)c1[nH]nc(-c2ccc(F)cc2)c1-c1ccncc1	80%
C[C@@H](NC(=O)c1ccc(F)cc1C(F)(F)F)c1[nH]nc(-c2ccc(F)cc2)c1-c1ccncc1	90%
C[C@H](NS(=O)(=O)c1ccccc1Cl)c1[nH]nc(-c2ccc(F)cc2)c1-c1ccncc1	94%
COc1ccc(S(=O)(=O)N[C@@H](C)c2[nH]nc(-c3ccc(F)cc3)c2-c2ccncc2)cc1OC	66%
CCCNC(=O)Cn1nc(-c2ccc(F)cc2)c(-c2ccncc2)c1C	31%
CCCCOc1ccc(S(=O)(=O)NCc2[nH]nc(-c3ccc(F)cc3)c2-c2ccncc2)cc1	31%
O=C(NCCc1[nH]nc(-c2ccc(F)cc2)c1-c1ccncc1)c1cccc(Cl)c1Cl	11%
O=C(N[C@H](Cc1ccccc1)c1[nH]nc(-c2ccc(F)cc2)c1-c1ccncc1)C1CCCC1	3%
O=C(NCCc1[nH]nc(-c2ccc(F)cc2)c1-c1ccncc1)c1cc(F)cc(F)c1	29%
C[C@H](NC(=O)c1c(F)cc(F)cc1F)c1[nH]nc(-c2ccc(F)cc2)c1-c1ccncc1	68%
O=S(=O)(NCc1[nH]nc(-c2ccc(F)cc2)c1-c1ccncc1)c1ccc(S(=O)(=O)c2ccccc2)s1	64%
C[C@@H](NS(=O)(=O)C[C@]12CC[C@@H](CC1=O)C2(C)C)c1[nH]nc(-c2ccc(F)cc2)c1-c1ccncc1	65%
C[C@H](NS(=O)(=O)c1ccc(C#N)cc1)c1[nH]nc(-c2ccc(F)cc2)c1-c1ccncc1	95%
C[C@@H](NC(=O)C1CCCC1)c1[nH]nc(-c2ccc(F)cc2)c1-c1ccncc1	12%
O=S(=O)(NCCCc1[nH]nc(-c2ccc(F)cc2)c1-c1ccncc1)c1cccc(Cl)c1Cl	18%

Target: MAPK14 (human) (UniProt Q16539)
Assay: Inhibition of MAPK14 Kinase Activity by PHAS-I Assay
Conditions: not given

Compound	IC50
CC(=O)N[C@@H](C)c1[nH]nc(-c2ccc(F)cc2)c1-c1ccncc1	0.46 µM
COc1ccccc1C(=O)N1CCC(c2[nH]nc(-c3ccc(F)cc3)c2-c2ccncc2)CC1	< 0.1 µM
O=C(Nc1ccccc1F)N[C@@H](Cc1ccccc1)c1[nH]nc(-c2ccc(F)cc2)c1-c1ccncc1	14 µM
COc1cccc(C(=O)N[C@@H](C)c2[nH]nc(-c3ccc(F)cc3)c2-c2ccncc2)c1	1.37 µM

Same assay, conditions: concentration not given here

Compound	inhibition
CCOC(=O)NCCCc1[nH]nc(-c2ccc(F)cc2)c1-c1ccncc1	94%
Cc1c(-c2ccncc2)c(-c2ccc(F)cc2)nn1CC(=O)N1CCOCC1	70%
Cc1c(-c2ccncc2)c(-c2ccc(F)cc2)nn1CC(=O)Nc1ccccc1SCCCc1ccccc1	80%
CCCCC(C)NC(=O)Cn1nc(-c2ccc(F)cc2)c(-c2ccncc2)c1C (configuration not stated)	75%
Cc1c(-c2ccncc2)c(-c2ccc(F)cc2)nn1CC(=O)NC1CC1	75%
Cc1c(-c2ccncc2)c(-c2ccc(F)cc2)nn1CC(=O)NC1CCN(Cc2ccccc2)CC1	70%
Cc1c(-c2ccncc2)c(-c2ccc(F)cc2)nn1CC(=O)Nc1cc(F)cc(F)c1	75%
COc1ccc(NC(=O)NCCc2[nH]nc(-c3ccc(F)cc3)c2-c2ccncc2)c(OC)c1	49%
Cc1c(-c2ccncc2)c(-c2ccc(F)cc2)nn1CC(=O)Nc1ccccc1C(=O)OC(C)C	88%
Cc1cccc(C)c1NC(=O)NCCCc1[nH]nc(-c2ccc(F)cc2)c1-c1ccncc1	88%
O=C(NCc1[nH]nc(-c2ccc(F)cc2)c1-c1ccncc1)c1cc(Cl)ccc1F	73%
CC(C)C(=O)NCCCc1[nH]nc(-c2ccc(F)cc2)c1-c1ccncc1	79%
CC(=O)OC(C)(C)C(=O)NCCCc1[nH]nc(-c2ccc(F)cc2)c1-c1ccncc1	74%
CC(C)(C)C(=O)NCCCc1[nH]nc(-c2ccc(F)cc2)c1-c1ccncc1	87%
Cc1c(-c2ccncc2)c(-c2ccc(F)cc2)nn1CC(=O)Nc1ccc(OCCOc2ccccc2)cc1	75%
CCN1CC(NC(=O)Cn2nc(-c3ccc(F)cc3)c(-c3ccncc3)c2C)CN1CC	47%
O=C(NCCCc1[nH]nc(-c2ccc(F)cc2)c1-c1ccncc1)c1cccc(Br)c1	70%
Cc1c(-c2ccncc2)c(-c2ccc(F)cc2)nn1CC(=O)Nc1ccccc1Oc1ccc(Cl)cc1	86%
Cc1c(-c2ccncc2)c(-c2ccc(F)cc2)nn1CC(=O)N(Cc1ccco1)CC(C)C	48%
O=C(NCCCc1[nH]nc(-c2ccc(F)cc2)c1-c1ccncc1)c1ccc(F)c(F)c1F	80%
Cc1c(-c2ccncc2)c(-c2ccc(F)cc2)nn1CC(=O)N1CCCC1	73%
COCC(C)NC(=O)Cn1nc(-c2ccc(F)cc2)c(-c2ccncc2)c1C (configuration not stated)	60%
COc1ccccc1C(=O)NCCCc1[nH]nc(-c2ccc(F)cc2)c1-c1ccncc1	68%
Cc1c(-c2ccncc2)c(-c2ccc(F)cc2)nn1CC(=O)N1CCCCC1	78%
Cc1cccc(C)c1NC(=O)NCCc1[nH]nc(-c2ccc(F)cc2)c1-c1ccncc1	56%
Cc1c(-c2ccncc2)c(-c2ccc(F)cc2)nn1CC(=O)N[C@@H](C)c1cccc2ccccc12	74%
Cc1c(-c2ccncc2)c(-c2ccc(F)cc2)nn1CC(=O)NC1CCN(CCc2c[nH]c3ccccc23)CC1	84%
O=C(NCCCc1[nH]nc(-c2ccc(F)cc2)c1-c1ccncc1)[C@H]1CCCN1	81%

Compound	inhibition
CN(C(=O)NCCCc1[nH]nc(-c2ccc(F)cc2)c1-c1ccncc1)c1ccccc1	76%
Cc1cccc(NC(=O)Cn2nc(-c3ccc(F)cc3)c(-c3ccncc3)c2C)c1	86%
CCOC(=O)CN(Cc1ccccn1)C(=O)Cn1nc(-c2ccc(F)cc2)c(-c2ccncc2)c1C	34%
CCCNC(=O)NCCCc1[nH]nc(-c2ccc(F)cc2)c1-c1ccncc1	88%
CC(C)NC(=O)NCCCc1[nH]nc(-c2ccc(F)cc2)c1-c1ccncc1	81%
CS(=O)(=O)NCCCc1[nH]nc(-c2ccc(F)cc2)c1-c1ccncc1	84%
O=S(=O)(NCc1[nH]nc(-c2ccc(F)cc2)c1-c1ccncc1)c1cc(Br)c(Br)s1	77%
O=C(NCCCc1[nH]nc(-c2ccc(F)cc2)c1-c1ccncc1)c1ccccn1	69%
Cc1c(-c2ccncc2)c(-c2ccc(F)cc2)nn1CC(=O)Nc1ccccc1C(F)(F)F	86%
Cc1c(-c2ccncc2)c(-c2ccc(F)cc2)nn1CC(=O)Nc1ccc(CSc2ccc(Cl)cc2)cc1	67%
CCCCCCOc1ccc(NC(=O)Cn2nc(-c3ccc(F)cc3)c(-c3ccncc3)c2C)cc1	80%
Cc1c(-c2ccncc2)c(-c2ccc(F)cc2)nn1CC(=O)NC1CCC1	81%
Cc1c(-c2ccncc2)c(-c2ccc(F)cc2)nn1CC(=O)NC1CCCc2ccccc21 (configuration not stated)	76%
CCN(Cc1c(F)cccc1Cl)C(=O)Cn1nc(-c2ccc(F)cc2)c(-c2ccncc2)c1C	46%
COc1cccc(CC(=O)NCCCc2[nH]nc(-c3ccc(F)cc3)c2-c2ccncc2)c1	92%
Cc1c(-c2ccncc2)c(-c2ccc(F)cc2)nn1CC(=O)NCC(=O)OC(C)(C)C	34%
CC(C)OC(=O)NCCc1[nH]nc(-c2ccc(F)cc2)c1-c1ccncc1	85%
O=C(NCCCc1[nH]nc(-c2ccc(F)cc2)c1-c1ccncc1)Nc1ccccc1F	86%
Cc1c(-c2ccncc2)c(-c2ccc(F)cc2)nn1CC(=O)Nc1ccccc1Cc1ccccc1	92%
COc1ccc(OC)c(NC(=O)Cn2nc(-c3ccc(F)cc3)c(-c3ccncc3)c2C)c1	85%
COc1ccc2nc(NC(=O)Cn3nc(-c4ccc(F)cc4)c(-c4ccncc4)c3C)sc2c1	86%
COc1cccc(NC(=O)NCCc2[nH]nc(-c3ccc(F)cc3)c2-c2ccncc2)c1	68%
O=C(NCCCc1[nH]nc(-c2ccc(F)cc2)c1-c1ccncc1)c1ccc(I)cc1	66%
O=C(NCCc1[nH]nc(-c2ccc(F)cc2)c1-c1ccncc1)C1CC1	85%
O=C(Cc1cccs1)NCCCc1[nH]nc(-c2ccc(F)cc2)c1-c1ccncc1	90%
Cc1c(-c2ccncc2)c(-c2ccc(F)cc2)nn1CC(=O)NCC(=O)Nc1ccccc1	86%
Cc1c(-c2ccncc2)c(-c2ccc(F)cc2)nn1CC(=O)Nc1ccc(C(F)(F)F)cc1	81%

From the Kinase Knowledgebase extract (Sharma et al. 2016)
